The text below walks through data of ChEMBL document CHEMBL1152666, “Structure-based virtual screening approach to the discovery of novel inhibitors of factor-inhibiting HIF-1: identification of new chelating groups for the active-site ferrous ion” (Bioorg Med Chem, 2009).

For orientation: IC50 means the concentration needed to halve the response being measured.

Sequence of Hypoxia-inducible factor 1-alpha inhibitor (Q9NWT6 whole entry): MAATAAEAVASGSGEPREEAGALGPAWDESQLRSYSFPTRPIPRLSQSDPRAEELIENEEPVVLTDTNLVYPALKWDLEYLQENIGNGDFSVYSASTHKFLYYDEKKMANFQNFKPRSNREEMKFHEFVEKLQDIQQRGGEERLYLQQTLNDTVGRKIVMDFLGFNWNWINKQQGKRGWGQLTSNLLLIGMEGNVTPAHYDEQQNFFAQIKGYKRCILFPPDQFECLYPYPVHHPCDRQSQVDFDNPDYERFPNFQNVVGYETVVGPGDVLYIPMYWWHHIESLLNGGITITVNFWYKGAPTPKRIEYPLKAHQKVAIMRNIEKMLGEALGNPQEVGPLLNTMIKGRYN

This assay concerns the target Hypoxia-inducible factor 1-alpha inhibitor (Homo sapiens, UniProt Q9NWT6). Put plainly: Inhibition of human recombinant FIH1.
Regarding `COc1cccc(/C=C2\SC(=S)N(CC(=O)Nc3cccc4nonc34)C2=O)c1`, the IC50 worked out at 45.3 µM.
The result for `CCSc1ccc(-c2nn(-c3ccccc3)cc2/C=C2/SC(=S)N(CC(=O)O)C2=O)cc1` reads 36.2 µM.
As to `COc1ccccc1OCc1cn2c(-c3ccc4ccccc4n3)nnc2s1`, the 50% inhibitory concentration (IC50) came out at 41.4 µM.
With `COc1ccccc1/C=C/c1cn2c(-c3ccc4ccccc4n3)nnc2s1` the figure was 47.5 µM; with `COc1ccccc1/C=C1\SC(=S)N(CCC(=O)Nc2ccc(S(N)(=O)=O)cc2)C1=O`, 32.1 µM; with `COc1cccc(/C=C2\SC(=S)N(CCC(=O)Nc3cccc4nonc34)C2=O)c1`, 73.1 µM.
With `O=C(CCN1C(=O)/C(=C\C=C\c2ccco2)SC1=S)Nc1cccc2nonc12` the figure was 48.6 µM.
With `O=C(O)CCN1C(=O)/C(=C\c2ccc(-c3ccc(Cl)cc3)o2)SC1=S` the figure was 66 µM.
